According to BindingDB's records for patent US12331033 (Disarm Therapeutics, 2025):

Target: T1, NAD(+) hydrolase SARM1 (Homo sapiens, UniProt Q6SZW1)
T1 sequence (Q6SZW1 whole entry): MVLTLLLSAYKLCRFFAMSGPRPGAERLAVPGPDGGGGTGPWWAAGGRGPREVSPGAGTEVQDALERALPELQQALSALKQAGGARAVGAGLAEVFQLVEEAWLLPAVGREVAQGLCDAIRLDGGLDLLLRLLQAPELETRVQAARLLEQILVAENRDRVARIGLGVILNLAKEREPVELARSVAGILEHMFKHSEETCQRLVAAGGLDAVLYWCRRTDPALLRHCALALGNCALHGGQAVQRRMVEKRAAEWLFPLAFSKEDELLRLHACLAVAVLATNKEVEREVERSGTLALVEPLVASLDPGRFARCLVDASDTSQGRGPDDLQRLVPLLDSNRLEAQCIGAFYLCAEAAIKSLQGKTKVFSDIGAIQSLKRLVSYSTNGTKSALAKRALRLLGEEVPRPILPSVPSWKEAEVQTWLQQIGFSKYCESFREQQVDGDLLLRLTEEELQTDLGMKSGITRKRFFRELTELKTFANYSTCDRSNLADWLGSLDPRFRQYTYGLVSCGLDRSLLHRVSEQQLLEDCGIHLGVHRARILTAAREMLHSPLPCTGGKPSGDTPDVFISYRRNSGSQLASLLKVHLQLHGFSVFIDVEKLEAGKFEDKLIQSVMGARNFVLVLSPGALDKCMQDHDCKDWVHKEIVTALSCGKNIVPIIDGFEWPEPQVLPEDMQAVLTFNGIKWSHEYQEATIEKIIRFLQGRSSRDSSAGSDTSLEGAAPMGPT
Test: ARM-SAM-TIR IC50 Assay
Procedure: The enzymatic assay was performed in a 384-well polypropylene plate in Dulbecco's PBS buffer in a final assay volume of 20 μL. ARM-SAM-TIR lysate with a final concentration of 5 μg/mL was pre-incubated with the respective compound at 1% DMSO final assay concentration over 2 h at room temperature. The reaction was initiated by addition of 5 μM final assay concentration of NAD+ as substrate. After a 2 hr room temperature incubation, the reaction was terminated with 40 μL of stop solution of 7.5% trichloroactetic acid in acetonitrile. The NAD+ and ADPR concentrations were analyzed by a RapidFire High Throughput Mass Spectrometry System (Agilent Technologies, Santa Clara, Calif.) using an API4000 triple quadrupole mass spectrometer (AB Sciex Framingham, Mass.).

Cc1c(-c2ccncc2)n[nH]c1NC(=O)COc1ccc(Cl)c(F)c1 [US12331033, Example 291]
IC50: < 5 µM
